Reference: the NIST ThermoML archive (doi:10.1016/j.jct.2016.03.034)

Test: xn = mol fraction of the nth substance listed
Conditions: 100 kPa, Liquid; for viscosity: Capillary tube (Ostwald / Ubbelohde) method; for mass density: Vibrating tube method

O=C1CCCO1 [γ-butyrolactone] + CCn1cc[n+](C)c1.O=S(=O)([N-]S(=O)(=O)C(F)(F)F)C(F)(F)F
Conditions | mass density [kg/m3] | viscosity [mPa·s]
293.15 K, x2 = 0 | 1129.49 | 1.86
293.15 K, x2 = 0.05 | 1189.18 | 2.57
293.15 K, x2 = 0.0995 | – | 3.12
293.15 K, x2 = 0.0996 | 1236.95 | –
293.15 K, x2 = 0.1502 | 1277.22 | 3.83
293.15 K, x2 = 0.2006 | 1310.83 | 4.63
293.15 K, x2 = 0.3 | – | 6.64
293.15 K, x2 = 0.3001 | 1363.28 | –
293.15 K, x2 = 0.4 | – | 9.2
293.15 K, x2 = 0.4021 | 1403.82 | –
293.15 K, x2 = 0.4899 | – | 11.95
293.15 K, x2 = 0.4992 | 1434.01 | –
293.15 K, x2 = 0.6103 | 1461.49 | 16.41
293.15 K, x2 = 0.6912 | 1478 | –
293.15 K, x2 = 0.6995 | – | 20.33
293.15 K, x2 = 0.7817 | 1493.78 | –
293.15 K, x2 = 0.7927 | – | 24.88
293.15 K, x2 = 0.8991 | 1510.97 | 30.67
293.15 K, x2 = 0.9532 | – | 34.26
298.15 K, x2 = 0 | 1124.59 | 1.71
298.15 K, x2 = 0.05 | 1184.22 | 2.41
298.15 K, x2 = 0.0995 | – | 2.94
298.15 K, x2 = 0.0996 | 1231.94 | –
298.15 K, x2 = 0.1502 | 1272.16 | 3.61
298.15 K, x2 = 0.2006 | 1305.75 | 4.35
298.15 K, x2 = 0.3 | – | 6.16
298.15 K, x2 = 0.3001 | 1358.16 | –
298.15 K, x2 = 0.4 | – | 8.37
298.15 K, x2 = 0.4021 | 1398.7 | –
298.15 K, x2 = 0.4899 | – | 10.72
298.15 K, x2 = 0.4992 | 1428.88 | –
298.15 K, x2 = 0.6103 | 1456.36 | 14.47
298.15 K, x2 = 0.6912 | 1472.86 | –
298.15 K, x2 = 0.6995 | – | 17.71
298.15 K, x2 = 0.7817 | 1488.64 | –
298.15 K, x2 = 0.7927 | – | 21.48
298.15 K, x2 = 0.8991 | 1505.84 | 26.32
298.15 K, x2 = 0.9532 | – | 29.01
303.15 K, x2 = 0 | 1119.68 | 1.58
303.15 K, x2 = 0.05 | 1179.23 | 2.24
303.15 K, x2 = 0.0995 | – | 2.71
303.15 K, x2 = 0.0996 | 1226.88 | –
303.15 K, x2 = 0.1502 | 1267.09 | 3.3
303.15 K, x2 = 0.2006 | 1300.66 | 3.97
303.15 K, x2 = 0.3 | – | 5.57
303.15 K, x2 = 0.3001 | 1353.03 | –
303.15 K, x2 = 0.4 | – | 7.49
303.15 K, x2 = 0.4021 | 1393.55 | –
303.15 K, x2 = 0.4899 | – | 9.49
303.15 K, x2 = 0.4992 | 1423.73 | –
303.15 K, x2 = 0.6103 | 1451.19 | 12.66
303.15 K, x2 = 0.6912 | 1467.67 | –
303.15 K, x2 = 0.6995 | – | 15.38
303.15 K, x2 = 0.7817 | 1483.46 | –
303.15 K, x2 = 0.7927 | – | 18.53
303.15 K, x2 = 0.8991 | 1500.66 | 22.48
303.15 K, x2 = 0.9532 | – | 24.66
308.15 K, x2 = 0 | 1114.78 | 1.47
308.15 K, x2 = 0.05 | 1174.26 | 2.07
308.15 K, x2 = 0.0995 | – | 2.48
308.15 K, x2 = 0.0996 | 1221.85 | –
308.15 K, x2 = 0.1502 | 1262.03 | 3.03
308.15 K, x2 = 0.2006 | 1295.56 | 3.66
308.15 K, x2 = 0.3 | – | 5.09
308.15 K, x2 = 0.3001 | 1347.9 | –
308.15 K, x2 = 0.4 | – | 6.72
308.15 K, x2 = 0.4021 | 1388.4 | –
308.15 K, x2 = 0.4899 | – | 8.39
308.15 K, x2 = 0.4992 | 1418.56 | –
308.15 K, x2 = 0.6103 | 1446.01 | 11.08
308.15 K, x2 = 0.6912 | 1462.49 | –
308.15 K, x2 = 0.6995 | – | 13.34
308.15 K, x2 = 0.7817 | 1478.28 | –
308.15 K, x2 = 0.7927 | – | 15.98
308.15 K, x2 = 0.8991 | 1495.47 | 19.26
308.15 K, x2 = 0.9532 | – | 21.15
313.15 K, x2 = 0 | 1109.87 | 1.37
313.15 K, x2 = 0.05 | 1169.29 | 1.92
313.15 K, x2 = 0.0995 | – | 2.32
313.15 K, x2 = 0.0996 | 1216.89 | –
313.15 K, x2 = 0.1502 | 1257.03 | 2.81
313.15 K, x2 = 0.2006 | 1290.56 | 3.37
313.15 K, x2 = 0.3 | – | 4.63
313.15 K, x2 = 0.3001 | 1342.87 | –
313.15 K, x2 = 0.4 | – | 6.09
313.15 K, x2 = 0.4021 | 1383.33 | –
313.15 K, x2 = 0.4899 | – | 7.55
313.15 K, x2 = 0.4992 | 1413.46 | –
313.15 K, x2 = 0.6103 | 1440.89 | 9.84
313.15 K, x2 = 0.6912 | 1457.37 | –
313.15 K, x2 = 0.6995 | – | 11.77
313.15 K, x2 = 0.7817 | 1473.14 | –
313.15 K, x2 = 0.7927 | – | 13.93
313.15 K, x2 = 0.8991 | 1490.3 | 16.67
313.15 K, x2 = 0.9532 | – | 18.26
318.15 K, x2 = 0 | 1104.96 | 1.28
318.15 K, x2 = 0.05 | 1164.33 | 1.76
318.15 K, x2 = 0.0995 | – | 2.12
318.15 K, x2 = 0.0996 | 1211.89 | –
318.15 K, x2 = 0.1502 | 1252 | 2.57
318.15 K, x2 = 0.2006 | 1285.51 | 3.07
318.15 K, x2 = 0.3 | – | 4.15
318.15 K, x2 = 0.3001 | 1337.8 | –
318.15 K, x2 = 0.4 | – | 5.46
318.15 K, x2 = 0.4021 | 1378.25 | –
318.15 K, x2 = 0.4899 | – | 6.65
318.15 K, x2 = 0.4992 | 1408.36 | –
318.15 K, x2 = 0.6103 | 1435.77 | 8.6
318.15 K, x2 = 0.6912 | 1452.23 | –
318.15 K, x2 = 0.6995 | – | 10.2
318.15 K, x2 = 0.7817 | 1467.99 | –
318.15 K, x2 = 0.7927 | – | 12.07
318.15 K, x2 = 0.8991 | 1485.13 | 14.42
318.15 K, x2 = 0.9532 | – | 15.79
323.15 K, x2 = 0 | 1100.05 | 1.2
323.15 K, x2 = 0.05 | 1159.37 | 1.66
323.15 K, x2 = 0.0995 | – | 2.02
323.15 K, x2 = 0.0996 | 1206.9 | –
323.15 K, x2 = 0.1502 | 1247.02 | 2.42
323.15 K, x2 = 0.2006 | 1280.5 | 2.89
323.15 K, x2 = 0.3 | – | 3.89
323.15 K, x2 = 0.3001 | 1332.77 | –
323.15 K, x2 = 0.4 | – | 4.97
323.15 K, x2 = 0.4021 | 1373.17 | –
323.15 K, x2 = 0.4899 | – | 6.15
323.15 K, x2 = 0.4992 | 1403.26 | –
323.15 K, x2 = 0.6103 | 1430.64 | 7.81
323.15 K, x2 = 0.6912 | 1447.09 | –
323.15 K, x2 = 0.6995 | – | 9.19
323.15 K, x2 = 0.7817 | 1462.82 | –
323.15 K, x2 = 0.7927 | – | 10.76
323.15 K, x2 = 0.8991 | 1479.92 | 12.78
323.15 K, x2 = 0.9532 | – | 13.93
